The values that follow come from ChEMBL document CHEMBL4831518, “Structure-aided optimization of non-nucleoside M. tuberculosis thymidylate kinase inhibitors” (Eur J Med Chem, 2021).

In series [1] the target is T1, Thymidylate kinase (Mycobacterium tuberculosis, UniProt P9WKE1).
T1 sequence (P9WKE1 whole entry): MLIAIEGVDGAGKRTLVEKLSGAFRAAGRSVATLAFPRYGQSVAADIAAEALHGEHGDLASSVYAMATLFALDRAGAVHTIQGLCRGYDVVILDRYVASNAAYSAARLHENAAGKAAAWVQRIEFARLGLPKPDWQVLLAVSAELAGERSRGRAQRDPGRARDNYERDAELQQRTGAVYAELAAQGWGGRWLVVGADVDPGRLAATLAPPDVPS
The series is described as follows: Inhibition of Mycobacterium tuberculosis H37Rv TMPK expressed in Escherichia coli by coupled enzyme based spectrophotometric analysis.

The test system of series [2] is Mycobacterium tuberculosis. The series is described as follows: Antimycobacterial activity against Mycobacterium tuberculosis H37Rv ATCC 27294 assessed as inhibition of bacterial growth in presence of glucose by broth microdilution method. It counts as functional. For orientation: Broth dilution looks for growth in wells or tubes with falling amounts of substance.

The next series has as its system MRC5. Nature of the series: Cytotoxicity against human MRC-5 cells assessed as reduction in cell growth measured after 3 days by resazurin dye based fluorometric analysis. The conditions noted are these: MRC5, 72 h. In general terms: Resazurin is reduced to fluorescent resorufin, in cell work by metabolically active cells.
In series [3] the test system is Mycobacterium tuberculosis. The series is described as follows: Antibacterial activity againstMycobacterium tuberculosis H37Rv assessed as inhibition of bacterial growth in presence of efflux pump inhibitor PAbetaN and glucose […] by microdilution assay. It counts as functional.
The test system of series [4] is Mycobacterium tuberculosis. Nature of the series: Antibacterial activity against Mycobacterium tuberculosis H37Rv assessed as inhibition of bacterial growth in presence of efflux pump inhibitor verapamil and glucose […] by microdilution assay. It counts as functional.
Series [5] deals with T2, Thymidylate kinase (Homo sapiens, UniProt P23919).
T2 sequence (P23919 whole entry): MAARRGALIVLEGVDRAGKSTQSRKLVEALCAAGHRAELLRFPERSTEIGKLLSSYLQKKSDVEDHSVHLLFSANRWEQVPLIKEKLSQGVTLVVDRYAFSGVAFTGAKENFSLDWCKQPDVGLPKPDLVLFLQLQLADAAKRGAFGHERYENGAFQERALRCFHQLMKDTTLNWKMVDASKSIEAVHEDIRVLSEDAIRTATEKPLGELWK
Nature of the series: Inhibition of human TMPK at 40 uM.

Series [6] addresses T2, Thymidylate kinase. The series is described as follows: Inhibition of human TMPK at 31 uM.
The mark [7] stands for this setting: Mycobacterium tuberculosis, H37Rv ATCC 27294, read-out: MIC.
The mark [8] stands for this setting: Mycobacterium tuberculosis, H37Rv, read-out: MIC.

The term IC50 denotes the concentration that inhibits the measured activity by half. Compound `Cc1cn(C2CCN(Cc3cccc(Oc4ccccc4)c3)CC2)c(=O)[nH]c1=O` had an IC50 at Thymidylate kinase [1] of 6.1 µM.

As a reminder, the MIC is the smallest concentration in the dilution series that meets the test's criterion for growth inhibition. As for `Cc1cn(C2CCN(Cc3cccc(Oc4cccc(F)c4)c3)CC2)c(=O)[nH]c1=O`, the results for the 50% inhibitory concentration (IC50) against Thymidylate kinase [1] and in the series with MRC5 were 2.9 µM and greater than 64 µM, respectively. Also, the MIC in series [2] (setting [7]) is 25 µM.

In the case of `Cc1cn(C2CCN(Cc3ccnc(Oc4ccccc4)c3)CC2)c(=O)[nH]c1=O`, the half-inhibitory concentration (IC50) against Thymidylate kinase [1] is 10.2 µM; in the series with MRC5, greater than 64 µM. For the same compound, in series [2] (setting [7]), the MIC was greater than 50 µM.

As for `Cc1cn(C2CCN(Cc3cccc(Oc4cccc(C(F)(F)F)c4)c3)CC2)c(=O)[nH]c1=O`, the IC50 at Thymidylate kinase [1] was determined as 0.6 µM; in the series on MRC5, 12.4 µM. Further, in series [2] (setting [7]), the MIC is 19 µM.

Consider `COc1cccc(Oc2cccc(CN3CCC(n4cc(C)c(=O)[nH]c4=O)CC3)c2)c1`, for which the IC50 turned out to be 1.2 µM against Thymidylate kinase [1] and 25.3 µM in the series on MRC5. For the same compound, the MIC in series [2] (setting [7]) was 25 µM.

With `Cc1cn(C2CCN(Cc3cccc(OC4CCCC4)c3)CC2)c(=O)[nH]c1=O`, the IC50 at Thymidylate kinase [1] stood at 32 µM; with MRC5, 30.3 µM. Besides, in series [2] (setting [7]), the MIC was greater than 50 µM.

On to `COc1ccc(Oc2cccc(CN3CCC(n4cc(C)c(=O)[nH]c4=O)CC3)c2)cc1`, for which the IC50 against Thymidylate kinase [1] was 10.5 µM; with MRC5, 28 µM. The MIC in series [2] was 31.25 µM; in series [3], 15.6 µg/mL; in series [4] (setting [8]) it was 15.6 µg/mL.

In the case of `Cc1cn(C2CCN(Cc3cccc(Oc4cccnc4)c3)CC2)c(=O)[nH]c1=O`, the 50% inhibitory concentration (IC50) against Thymidylate kinase [1] is 27 µM; in the series with MRC5, greater than 64 µM. Further, the minimal inhibitory concentration (MIC) in series [2] (setting [7]) was greater than 50 µM.

As for `Cc1cn(C2CCN(Cc3cccc(Oc4ccc(Cl)c(C(F)(F)F)c4)c3)CC2)c(=O)[nH]c1=O`, the results for the IC50 against Thymidylate kinase [1] and in the series with MRC5 were 1.1 µM and 5.28 µM, respectively. The minimum inhibitory concentration (MIC) in series [2] (setting [7]) was 25 µM. For the same compound, the “inhibition (INH)” value at Thymidylate kinase [5] was “Not Active”.

Consider `Cc1cn(C2CCN(Cc3cccc(Oc4ccc(Cl)cc4)c3)CC2)c(=O)[nH]c1=O`, for which the IC50 against Thymidylate kinase [1] was determined as 6.9 µM; in the series on MRC5, 25.1 µM. In addition, in series [2] (setting [7]), the MIC came out at 12.5 µM.

As to `Cc1cn(C2CCN(Cc3cccc(Oc4cccc(Cl)c4)c3)CC2)c(=O)[nH]c1=O`, the results for the 50% inhibitory concentration (IC50) on Thymidylate kinase [1] and in the series on MRC5 were 0.89 µM and 21 µM, respectively. The MIC in series [2] (setting [7]) worked out at 12.5 µM.

On to `Cc1cn(C2CCN(Cc3cccc(Oc4cc(F)cc(F)c4)c3)CC2)c(=O)[nH]c1=O`, for which the values for the IC50 on Thymidylate kinase [1] and in the series with MRC5 were 2.8 µM and greater than 64 µM, respectively. The MIC in series [2] (setting [7]) was greater than 50 µM.

In turn, `Cc1cn(C2CCN(Cc3cccc(Oc4ccncc4)c3)CC2)c(=O)[nH]c1=O` returned a concentration for half-maximal inhibition (IC50) against Thymidylate kinase [1] of 20 µM.

In the case of `Cc1cn(C2CCN(Cc3cc(Oc4ccccc4)ccn3)CC2)c(=O)[nH]c1=O`, the IC50 is 8.7 µM on Thymidylate kinase [1] and greater than 64 µM in the series with MRC5. Besides, the MIC in series [2] (setting [7]) was greater than 50 µM.

At Thymidylate kinase [1], `Cc1cn(C2CCN(Cc3cccc(Oc4cc(C(F)(F)F)cc(C(F)(F)F)c4)c3)CC2)c(=O)[nH]c1=O` yielded a concentration for half-maximal inhibition (IC50) of 0.14 µM. Besides, in series [2] (setting [7]), the MIC was greater than 50 µM.

Regarding `Cc1cn(C2CCN(Cc3cccc(Oc4cccc(Cl)c4)n3)CC2)c(=O)[nH]c1=O`, the IC50 against Thymidylate kinase [1] was 0.45 µM; with MRC5, greater than 64 µM. Further, the MIC in series [2] (setting [7]) was found to be 31 µM. The “inhibition (INH)” value at Thymidylate kinase [5] was “Not Active”.

With `Cc1cn(C2CCN(Cc3cccc(Oc4ccc(Cl)c(Cl)c4)c3)CC2)c(=O)[nH]c1=O`, the IC50 worked out at 1.1 µM against Thymidylate kinase [1] and 6.1 µM in the series with MRC5. The minimum inhibitory concentration (MIC) in series [2] (setting [7]) was found to be 12.5 µM. For the same compound, on Thymidylate kinase [5], the “inhibition (INH)” value is recorded as “Not Active”.

Regarding `Cc1ccc(Oc2cccc(CN3CCC(n4cc(C)c(=O)[nH]c4=O)CC3)c2)cc1`, the figures for the 50% inhibitory concentration (IC50) against Thymidylate kinase [1] and in the series with MRC5 were 12 µM and greater than 64 µM, respectively. For the same compound, the minimum inhibitory concentration (MIC) in series [2] (setting [7]) was 31.2 µM; in series [3], 15.6 µg/mL; in series [4] (setting [8]), 15.6 µg/mL.

With `Cc1cn(C2CCN(Cc3cccc(Oc4ccc(F)c(F)c4)c3)CC2)c(=O)[nH]c1=O`, the 50% inhibitory concentration (IC50) at Thymidylate kinase [1] was 2.6 µM; in the series with MRC5 it was greater than 64 µM. Moreover, the MIC in series [2] (setting [7]) was 19 µM.

In the case of `Cc1cn(C2CCN(Cc3cccc(OC4CCCCC4)c3)CC2)c(=O)[nH]c1=O`, the concentration for half-maximal inhibition (IC50) at Thymidylate kinase [1] worked out at 42 µM; in the series with MRC5, 23.6 µM. In series [2] (setting [7]), the MIC was found to be 37 µM.

For `Cc1cn(C2CCN(Cc3cncc(Oc4cccc(OC(F)(F)F)c4)c3)CC2)c(=O)[nH]c1=O`, the IC50 on Thymidylate kinase [1] is 0.81 µM; in the series with MRC5, greater than 64 µM. Further, the minimum inhibitory concentration (MIC) in series [2] (setting [7]) amounted to 37 µM.

Regarding `Cc1cn(C2CCN(Cc3cc(Oc4cccc(Cl)c4)ccn3)CC2)c(=O)[nH]c1=O`, the IC50 is 2.8 µM at Thymidylate kinase [1] and greater than 64 µM in the series with MRC5. In addition, in series [2] (setting [7]), the MIC was greater than 50 µM.

`Cc1cn(C2CCN(Cc3cccc(Oc4cccc(OC(F)(F)F)c4)c3)CC2)c(=O)[nH]c1=O`: the half-maximal inhibitory concentration (IC50) against Thymidylate kinase [1] was found to be 0.65 µM; with MRC5 it was 5.26 µM. The MIC in series [2] (setting [7]) stood at 25 µM. Besides, the “inhibition (INH)” value against Thymidylate kinase [5] was “Not Active”.

As for `Cc1cn(C2CCN(Cc3cncc(Oc4cc(Cl)cc(Cl)c4)c3)CC2)c(=O)[nH]c1=O`, the IC50 is 0.22 µM on Thymidylate kinase [1] and greater than 64 µM in the series with MRC5. In addition, the minimum inhibitory concentration (MIC) in series [2] (setting [7]) was determined as 43 µM. Further, at Thymidylate kinase [6], the “inhibition (INH)” value was “Not Active”.

For `Cc1cn(C2CCN(Cc3cccc(Oc4ccccc4)n3)CC2)c(=O)[nH]c1=O`, the minimum inhibitory concentration (MIC) was greater than 50 µM in series [2] (setting [7]), 62.5 µg/mL in series [3] and 125 µg/mL in series [4] (setting [8]). In the series with MRC5, the IC50 is greater than 64 µM.

Regarding `Cc1cn(C2CCN(Cc3cccc(Oc4ccc(O)cc4)n3)CC2)c(=O)[nH]c1=O`, on Thymidylate kinase [1], half-maximal inhibition (IC50) required 1.1 µM. In series [2] (setting [7]), the MIC is greater than 50 µM.

`Cc1cn(C2CCN(Cc3ccnc(Oc4cccc(Cl)c4)c3)CC2)c(=O)[nH]c1=O`: the figures for the 50% inhibitory concentration (IC50) against Thymidylate kinase [1] and with MRC5 were 3.1 µM and greater than 64 µM, respectively. Moreover, the MIC is 37 µM in series [2] (setting [7]), 15.6 µg/mL in series [3] and 31.25 µg/mL in series [4].

Consider `Cc1cn(C2CCN(Cc3cccc(Oc4ccccc4C(=O)O)n3)CC2)c(=O)[nH]c1=O`, for which the half-maximal inhibitory concentration (IC50) on Thymidylate kinase [1] came out at 25 µM. Besides, in series [2] (setting [7]), the MIC is greater than 50 µM.

In the case of `Cc1cn(C2CCN(Cc3cncc(Oc4ccccc4)c3)CC2)c(=O)[nH]c1=O`, the half-inhibitory concentration (IC50) is 6.4 µM against Thymidylate kinase [1] and greater than 64 µM with MRC5. In series [2] (setting [7]), the MIC turned out to be 37 µM.

In the case of `Cc1cn(C2CCN(Cc3cccc(Oc4cccc(O)c4)c3)CC2)c(=O)[nH]c1=O`, the IC50 in the series with MRC5 is greater than 64 µM.

For the compound `Cc1cn(C2CCN(Cc3cncc(Oc4cccc(Cl)c4)c3)CC2)c(=O)[nH]c1=O`, the IC50 against Thymidylate kinase [1] was 0.77 µM; in the series with MRC5, greater than 64 µM. Further, the minimum inhibitory concentration (MIC) in series [2] (setting [7]) turned out to be 31 µM.

`Cc1cccc(Oc2cccc(CN3CCC(n4cc(C)c(=O)[nH]c4=O)CC3)c2)c1`: the concentration for half-maximal inhibition (IC50) against Thymidylate kinase [1] is 26 µM; in the series with MRC5 it was greater than 64 µM. For the same compound, the MIC in series [2] (setting [7]) amounted to 37 µM.

With `Cc1cn(C2CCN(Cc3cc(Oc4cc(Cl)cc(Cl)c4)ccn3)CC2)c(=O)[nH]c1=O`, the IC50 against Thymidylate kinase [1] is 0.6 µM. Moreover, the MIC in series [2] (setting [7]) was determined as 34 µM.

In the case of `Cc1cn(C2CCN(Cc3cccc(Oc4cc(Cl)cc(Cl)c4)c3)CC2)c(=O)[nH]c1=O`, the 50% inhibitory concentration (IC50) is 0.12 µM against Thymidylate kinase [1] and 6.73 µM in the series with MRC5. In addition, the values for the MIC in series [2] (setting [7]), in series [3] and in series [4] (setting [8]) were 12.5 µM, 7.8 µg/mL and 7.8 µg/mL, respectively. Besides, the “inhibition (INH)” value at Thymidylate kinase [5] is on record as “Not Active”.

As for `Cc1cn(C2CCN(Cc3cccc(Oc4ccccn4)c3)CC2)c(=O)[nH]c1=O`, the concentration for half-maximal inhibition (IC50) was 41 µM against Thymidylate kinase [1] and greater than 64 µM in the series with MRC5. Further, the minimal inhibitory concentration (MIC) in series [2] (setting [7]) is greater than 50 µM.
